From US8178058B2, “High throughput cell-based assays, methods of use and kits” (EMD Millipore Corporation, priority 2007, dated 2012)

Test system: activated caspases
Test: Cell based apoptosis assay (FLICA FAM-VAD-FMK staining, gravity washing, flow cytometry)
Conditions: cells treated 2 hours at 37° C with 10, 0.63, 0.06 microMolar Staurosporine vs non-induced control
Protocol: Cell based apoptosis assay was performed using gravity based filtration.
Cells were treated with increasing concentration of well-known apoptosis inducer (Staurosporine) for 2 hours at 37° C. After induction, cells were treated with FLICA. Unbound FLICAs were removed from the nonapoptotic cells by gravity washing the cells with wash buffer 4 times. After gravity washing cells labeled with FLICAs (FAM-VAD-FMK, pan-caspases FLICA) was examined by flow cytometry.
Shown in FIGS. 10A and B are flow cytometric histograms of FAM-VAD-FMK stained cells from induced (10, 0.63, 0.06 microMolar of Staurosporine) and non-induced control samples.
Notice the dose response.

## CN[C@@H]1C[C@H]2O[C@@](C)([C@@H]1OC)n1c3ccccc3c3c4c(c5c6ccccc6n2c5c31)C(=O)NC4 [Staurosporine]
  apoptotic cell population (FAM-VAD-FMK percent positive population): Increase in apoptotic cell population
